Legend:
Assay type in all cases: in vivo
[1] = test system: Echinochloa crus-galli (L.) Beauv.; assay: Bioassay of herbicidal activity in greenhouse (further screening); details: post-emergence
Summary of the method: (§1)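 Plants were raised from seed under greenhouse conditions and treated with emulsifiable-concentrate compounds by track sprayer, either 24 hours after sowing or post-emergence at the 2- to 3-leaf (grass) or 2- to 4-leaf (broad-leaf) stage. Damage was assessed visually as percent growth inhibition.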

[2] = test system: Setaria glauca (L.) Beauv.; assay: as above; details: post-emergence
Summary of the method: as §1

[3] = test system: Abutilon theophrasti Medic.; assay: as above; details: post-emergence
Summary of the method: as §1

Zinnia elegans Jacq. = assay: as above; details: post-emergence
Summary of the method: as §1

[4] = test system: broad-leaf weeds and grass weeds; assay: General screening of herbicidal activity in greenhouse; details: 1000 g a.i./hm^2;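 also: 0 means no visible effect and 100 means all weeds dead or not emerged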
Summary of the method: as §1

Cn1c(C(F)(F)F)cc(=O)n(-c2cc(C3=NOC(C)(C(=O)OCC4CCCO4)C3)c(Cl)cc2F)c1=O (stereo not drawn) [Compound 398]
Growth inhibition rate, Post-emergence treatment, Echinochloa crus-galli (L.) Beauv. ([1]; dose 7.5 g a.i./hm^2): 65% | Growth inhibition rate, Post-emergence treatment, Echinochloa crus-galli (L.) Beauv. ([1]; dose 15 g a.i./hm^2): 75% | Growth inhibition rate, Post-emergence treatment, Echinochloa crus-galli (L.) Beauv. ([1]; dose 30.0 g a.i./hm^2): 95% | Growth inhibition rate, Post-emergence treatment, Echinochloa crus-galli (L.) Beauv. ([1]; dose 60.0 g a.i./hm^2): 100% | Growth inhibition rate, Post-emergence treatment, Echinochloa crus-galli (L.) Beauv. ([1]; dose 120.0 g a.i./hm^2): 100% | Growth inhibition rate, Post-emergence treatment, Setaria glauca (L.) Beauv. ([2]; dose 7.5 g a.i./hm^2): 55% | Growth inhibition rate, Post-emergence treatment, Setaria glauca (L.) Beauv. ([2]; dose 15 g a.i./hm^2): 95% | Growth inhibition rate, Post-emergence treatment, Setaria glauca (L.) Beauv. ([2]; dose 30.0 g a.i./hm^2): 100% | Growth inhibition rate, Post-emergence treatment, Setaria glauca (L.) Beauv. ([2]; dose 60.0 g a.i./hm^2): 100% | Growth inhibition rate, Post-emergence treatment, Setaria glauca (L.) Beauv. ([2]; dose 120.0 g a.i./hm^2): 100% | Growth inhibition rate, Post-emergence treatment, Abutilon theophrasti Medic. ([3]; dose 7.5 g a.i./hm^2): 98% | Growth inhibition rate, Post-emergence treatment, Abutilon theophrasti Medic. ([3]; dose 15 g a.i./hm^2): 98% | Growth inhibition rate, Post-emergence treatment, Abutilon theophrasti Medic. ([3]; dose 30.0 g a.i./hm^2): 100% | Growth inhibition rate, Post-emergence treatment, Abutilon theophrasti Medic. ([3]; dose 60.0 g a.i./hm^2): 100% | Growth inhibition rate, Post-emergence treatment, Abutilon theophrasti Medic. ([3]; dose 120.0 g a.i./hm^2): 100% | Growth inhibition rate, Post-emergence treatment, Zinnia elegans Jacq. (Zinnia elegans Jacq.; dose 7.5 g a.i./hm^2): 65% | Growth inhibition rate, Post-emergence treatment, Zinnia elegans Jacq. (Zinnia elegans Jacq.; dose 15 g a.i./hm^2): 90% | Growth inhibition rate, Post-emergence treatment, Zinnia elegans Jacq. (Zinnia elegans Jacq.; dose 30.0 g a.i./hm^2): 100% | Growth inhibition rate, Post-emergence treatment, Zinnia elegans Jacq. (Zinnia elegans Jacq.; dose 60.0 g a.i./hm^2): 100% | Growth inhibition rate, Post-emergence treatment, Zinnia elegans Jacq. (Zinnia elegans Jacq.; dose 120.0 g a.i./hm^2): 100% | pre-emergence and post-emergence herbicidal activity against broad-leaf weeds and grass weeds [4]: good

From US10550111B2, “Pyrimidine urea compound containing isoxazolines and use thereof” (SHENYANG SINOCHEM AGROCHEMICALS R&D CO., LTD, priority 2014, dated 2020)
